Reference: article PMC9331678 (Molecules, 2022)

Columns and labels:
[1] = 24 h therapeutic monitoring and noncompartmental pharmacokinetics in chronic lymphocytic leukemia patients receiving IBR; conditions: plasma; for concentration at 24 h: 24 h postdose; for k el / half-life / MRT last / MRT / Cmax / Tmax / AUCPEO AUC %Extrapolation Obs / AUCPEP AUC %Extrapolation Pred / AUMCIFO AUMC Infinity Obs / AUMCIFP AUMC Infinity Pred / AUMCLST AUMC to Last Nonzero Conc / AUMCPEO AUMC %Extrapolation Obs / AUMCPEP AUMC % Extrapolation Pred / TMAX Time of CMAX: steady state
Protocol: In order to provide a proof of concept, IBR and DIB were assayed in the plasma samples of three patients treated with IBR. […] The criteria for inclusion were (1) age of ≥18 years, (2) treatment ongoing with IBR for more than 10 days, and (3) no concurrent administration of medications undergoing CYP3A4 metabolism. The subjects gave their written informed consent. Each participant took either two or three 140 mg Imbruvica capsules, as per the therapeutic provision, in the presence of the recruiting clinician.
Blood samples were centrifuged at 3000 rpm for 10 min in a Hettich Universal 320R centrifuge (Auro-Science, Budapest, Hungary) at 10 °C. Plasma was separated and frozen at −70 °C until analysis was done within 2 weeks.

[2] = Stability in plasma at −70 °C; assay type: in vitro ADME
[3] = population modeling study; cited from earlier work
[4] = human, oral, 420 mg, Patient 1, 420 mg IBR per day
[5] = human, oral, 420 mg, Patient 2, 420 mg IBR per day

Compound `Nc1ncnc2c1c(-c1ccc(Oc3ccccc3)cc1)nn2[C@@H]1CCCN(C(=O)C(O)CO)C1` (stereo partly drawn) [Dihydrodiol Ibrutinib, 1-[(3R)-3-[4-amino-3-(4-phenoxyphenyl)pyrazolo[3,4-d]pyrimidin-1-yl]piperidin-1-yl]-2,3-dihydroxypropan-1-one] has a concentration at 24 h ([1]; human, oral, 420 mg, Conc., subj=1 (420 mg IBR per day)) of 34.6 nM, a concentration at 0.5 h ([1]; human, oral, 420 mg, Conc., subj=2 (420 mg IBR per day), 0.5 h postdose) of 71.5 nM and a concentration at 1 h ([1]; human, oral, 420 mg, Conc., subj=2 (420 mg IBR per day), 1 h postdose) of 254 nM. For the same compound, the concentration at 2 h ([1]; human, oral, 420 mg, Conc., subj=2 (420 mg IBR per day), 2 h postdose) was 227 nM, the k el ([1]; human, oral, 420 mg, LAMZ Lambda z, subj=1 (420 mg IBR per day)) was 1.9e-05 s⁻¹ and the k el ([1]; human, oral, 420 mg, LAMZ Lambda z, subj=2 (420 mg IBR per day)) was 3.6e-05 s⁻¹. The half-life ([1]; human, oral, 420 mg, LAMZHL Half-Life Lambda z, subj=1 (420 mg IBR per day)) was 10.1 h, the half-life ([1]; human, oral, 420 mg, LAMZHL Half-Life Lambda z, subj=2 (420 mg IBR per day)) was 5.35 h and the MRT last ([1]; human, oral, 420 mg, MRT0–24, Patient 1, 420 mg IBR per day) was 7.07 h. The MRT last ([1]; human, oral, 420 mg, MRT0–24, Patient 2, 420 mg IBR per day) was 4.6 h, the MRT ([1]; human, oral, 420 mg, MRTEVIFO MRT Extravasc Infinity Obs, subj=1 (420 mg IBR per day)) was 12.7 h and the MRT ([1]; human, oral, 420 mg, MRTEVIFO MRT Extravasc Infinity Obs, subj=2 (420 mg IBR per day)) was 5.65 h. The MRT ([1]; human, oral, 420 mg, MRTEVIFP MRT Extravasc Infinity Pred, subj=1 (420 mg IBR per day)) was 12.9 h, the MRT ([1]; human, oral, 420 mg, MRTEVIFP MRT Extravasc Infinity Pred, subj=2 (420 mg IBR per day)) was 5.63 h and the MRT ([1]; human, oral, 420 mg, MRTEVLST MRT Extravasc to Last Nonzero Conc, subj=1 (420 mg IBR per day)) was 7.07 h. The MRT ([1]; human, oral, 420 mg, MRTEVLST MRT Extravasc to Last Nonzero Conc, subj=2 (420 mg IBR per day)) was 4.6 h, the Cmax [1, 4] was 185 nM and the Cmax [1, 5] was 254 nM. The k el ([1]; human, oral, 420 mg, ke, Patient 1, 420 mg IBR per day) was 1.92e-05 s⁻¹, the k el ([1]; human, oral, 420 mg, ke, Patient 2, 420 mg IBR per day) was 3.61e-05 s⁻¹ and the half-life ([1]; human, oral, 420 mg, t1/2, Patient 1, 420 mg IBR per day) was 10.1 h. It also gave a half-life ([1]; human, oral, 420 mg, t1/2, Patient 2, 420 mg IBR per day) of 5.35 h, a Tmax [1, 4] of 2 h and a Tmax [1, 5] of 1 h. The concentration at 4 h ([1]; human, oral, 420 mg/day, Conc., subj=2 (420 mg IBR per day), 4 h postdose) was 172 nM, the concentration at 23 h ([1]; human, oral, 420 mg/day, Conc., subj=2 (420 mg IBR per day), 23 h postdose) was 14.6 nM and the concentration at 24 h ([1]; human, oral, 420 mg/day, Conc., subj=2 (420 mg IBR per day)) was 13.2 nM. The “AUCPEO AUC %Extrapolation Obs” value ([1]; subj=1 (420 mg IBR per day)) was 17.7444%, the “AUCPEP AUC %Extrapolation Pred” value ([1]; subj=1 (420 mg IBR per day)) was 18.5268% and the “AUMCIFO AUMC Infinity Obs” value ([1]; subj=1 (420 mg IBR per day)) was 36155.1204 h2*nmol/L. The “AUMCIFP AUMC Infinity Pred” value ([1]; subj=1 (420 mg IBR per day)) was 37213.6967 h2*nmol/L, the “AUMCLST AUMC to Last Nonzero Conc” value ([1]; subj=1 (420 mg IBR per day)) was 16593.9650 h2*nmol/L and the “AUMCPEO AUMC %Extrapolation Obs” value ([1]; subj=1 (420 mg IBR per day)) was 54.1034%. For the same compound, the “AUMCPEP AUMC % Extrapolation Pred” value ([1]; subj=1 (420 mg IBR per day)) was 55.4090%, the “TMAX Time of CMAX” value ([1]; subj=1 (420 mg IBR per day)) was 2.0000 h and the “AUCPEO AUC %Extrapolation Obs” value ([1]; subj=2 (420 mg IBR per day)) was 3.8711%. For the same compound, the “AUCPEP AUC %Extrapolation Pred” value ([1]; subj=2 (420 mg IBR per day)) was 3.8177%, the “AUMCIFO AUMC Infinity Obs” value ([1]; subj=2 (420 mg IBR per day)) was 14854.1469 h2*nmol/L and the “AUMCIFP AUMC Infinity Pred” value ([1]; subj=2 (420 mg IBR per day)) was 14807.8422 h2*nmol/L. The “AUMCLST AUMC to Last Nonzero Conc” value ([1]; subj=2 (420 mg IBR per day)) was 11625.7539 h2*nmol/L, the “AUMCPEO AUMC %Extrapolation Obs” value ([1]; subj=2 (420 mg IBR per day)) was 21.7340% and the “AUMCPEP AUMC % Extrapolation Pred” value ([1]; subj=2 (420 mg IBR per day)) was 21.4892%. For the same compound, the “TMAX Time of CMAX” value ([1]; subj=2 (420 mg IBR per day)) was 1.0000 h, the “AUCPEO AUC %Extrapolation Obs” value ([1]; subj=3 (280 mg IBR per day)) was 4.3920% and the “AUCPEP AUC %Extrapolation Pred” value ([1]; subj=3 (280 mg IBR per day)) was 4.2856%. For the same compound, the “AUMCIFO AUMC Infinity Obs” value ([1]; subj=3 (280 mg IBR per day)) was 10834.3795 h2*nmol/L, the “AUMCIFP AUMC Infinity Pred” value ([1]; subj=3 (280 mg IBR per day)) was 10766.9678 h2*nmol/L and the “AUMCLST AUMC to Last Nonzero Conc” value ([1]; subj=3 (280 mg IBR per day)) was 8171.9228 h2*nmol/L. The “AUMCPEO AUMC %Extrapolation Obs” value ([1]; subj=3 (280 mg IBR per day)) was 24.5741%, the “AUMCPEP AUMC % Extrapolation Pred” value ([1]; subj=3 (280 mg IBR per day)) was 24.1019% and the “TMAX Time of CMAX” value ([1]; subj=3 (280 mg IBR per day)) was 2.0000 h. The “time after drug intake at which maximum concentrations were attained” value ([1]; three chronic lymphocyte leukemia patients) was at most 2 h, the stability in plasma [2] was 3 month and the “interindividual variability in the clearance” value [3] was 51%. For the same compound, the “intraindividual variability in the clearance” value [3] was 26%.
